In patent US8048898B2, “Inhibitor of binding of S1P1” (Taisho Pharmaceutical Co., Ltd, priority 2007, dated 2011) one finds inhibition and IC50 data, which are given here for 15 compounds.

The target of one test is T1, human Edg-1(S1P1) (Homo sapiens, UniProt P21453).
T1 construct: expressed in transfected cells; host or cells: HEK-293
T1 sequence (P21453 whole entry): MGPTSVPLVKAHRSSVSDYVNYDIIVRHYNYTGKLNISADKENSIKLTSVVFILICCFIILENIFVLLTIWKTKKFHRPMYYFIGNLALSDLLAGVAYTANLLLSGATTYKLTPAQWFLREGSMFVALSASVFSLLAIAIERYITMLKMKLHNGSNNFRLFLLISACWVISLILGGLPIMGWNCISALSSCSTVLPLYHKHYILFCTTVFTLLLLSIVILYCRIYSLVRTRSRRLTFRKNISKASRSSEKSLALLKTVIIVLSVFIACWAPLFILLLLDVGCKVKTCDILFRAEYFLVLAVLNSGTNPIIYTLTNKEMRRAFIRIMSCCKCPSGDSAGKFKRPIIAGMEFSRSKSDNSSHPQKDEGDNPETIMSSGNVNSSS
Nature of the test: S1P1 Binding Test ([33P]-S1P, membrane fraction of HEK-293 cell line carrying the human Edg-1(S1P1) gene). The settings on record: compound at 10 μM; [33P]-S1P 0.1 nM; 30° C., 1 hour; read-out: inhibition rate of Edg-1(S1P1) binding. As to the method: The membrane fraction of a HEK-293 cell line carrying the human Edg-1(S1P1) gene was used to study the compounds of the present invention for their inhibitory effect on Edg-1(S1P1) binding, as described in Science. […] To obtain the membrane fraction, treatment with solubilizing buffer (1 mM Tris/HCl, pH 7.2) for 10 minutes on ice was performed, followed by centrifugation at 1000×g for 5 minutes to remove an insoluble fraction and then at 40000×g for 30 minutes at 4° C. The resulting membrane fraction was dissolved in binding buffer (20 mM Tris-HCl, pH 7.4, 100 mM NaCl, 15 mM NaF, 2 mM deoxypyridoxine, 4 mg/mL fatty acid-free BSA), followed by addition of binding buffer containing [^33P]-S1P (ARC, final concentration: 0.1 nM) and DMSO solution of a test compound (final concentration of the compound: 10^−5 M, final concentration of DMSO: 0.1%). After stirring, the reaction solution was incubated at 30° C. for 1 hour. The membrane fraction was collected onto a unifilter-96 GF/C filter (Perkin Elmer) using a harvester and washed four times with binding buffer, followed by drying the filter. After addition of 25 μL Microscint 0 (Perkin Elmer), radioactivity was measured with a Top Count NXT (Packard) to calculate amount (A), i.e., the amount of [^33P]-S1P binding to the membrane fraction in the presence of the compound.
The same procedure was performed in the absence of any test compound to calculate amount (B), i.e., the amount of [^33P]-S1P binding. Moreover, the same procedure was also performed with HEK-293 cells carrying no Edg-1(S1P1) gene in the absence of any test compound to calculate amount (C), i.e., the amount of background [^33P]-S1P binding.
The inhibition rate of Edg-1(S1P1) binding was calculated for each compound by the following equation. Inhibition rate (%)=[1−(A−C)/(B−C)]×100
Moreover, the activity of each test compound was calculated as a value (IC50 value) showing 50% of the radioactivity obtained in the absence of any test compound. Namely, the above membrane system binding test was performed in the presence of a test compound at various concentrations to calculate an IC50 value according to the dose-dependent inhibition curve analyzed with data analysis software, Origin (Lightstone Corp., Japan).
One may read the inhibition as the percentage by which the read-out fell short of the control. For the compound `CCc1c(C(C)NS(=O)(=O)c2ccc(Br)s2)ccnc1Oc1cccc(N2CCOCC2)c1` (stereo not drawn) [Compound 47], the inhibition at 10 µM is not below 3%.

As for `CCc1c(C(C)NS(=O)(=O)c2ccc(Cl)c(Cl)c2Cl)ccnc1Oc1cccc(N2CCOCC2)c1` (stereo not drawn) [Compound 48], the inhibition at 10 µM is not below 3%. The same measure, in the same setting: then `CCc1c(C(C)NS(=O)(=O)c2cccnc2)ccnc1Oc1cccc(N2CCOCC2)c1` (stereo not drawn) [Compound 49], with not below 3%; and `CCc1c(C(C)NS(=O)(=O)c2ccc3ncccc3c2)ccnc1Oc1cccc(N2CCOCC2)c1` (stereo not drawn) [Compound 50], with not below 3%; and `CCc1c(C(C)NS(=O)(=O)c2cc3ccccc3s2)ccnc1Oc1cccc(N2CCOCC2)c1` (stereo not drawn) [Compound 51], with not below 3%. Still for that read-out and setting: then `CCc1c(C(C)NS(=O)(=O)c2ccc3c(c2)OCO3)ccnc1Oc1cccc(N2CCOCC2)c1` (stereo not drawn) [Compound 52], with not below 3%; and `CCc1c(C(C)NS(=O)(=O)/C=C/c2ccccc2)ccnc1Oc1cccc(N2CCOCC2)c1` (stereo not drawn) [Compound 53], with not below 3%. The same measure, in the same setting: the same measure for `CCc1c(C(C)NS(=O)(=O)c2ccc3c(c2)CCO3)ccnc1Oc1cccc(N2CCOCC2)c1` (stereo not drawn) [Compound 54]: not below 3%. Regarding `CCc1c(C(C)NS(=O)(=O)c2ccc3c(c2)N=S=N3)ccnc1Oc1cccc(N2CCOCC2)c1` (stereo not drawn) [Compound 55], the inhibition at 10 µM was not below 3%. As for `CCc1c(C(C)NS(=O)(=O)c2ccc(Cl)cc2Cl)ccnc1Oc1cccc(N2CCOCC2)c1` (stereo not drawn) [Compound 56], the inhibition at 10 µM is not below 3%. Still for that read-out and setting: then `CCc1c(C(C)NS(=O)(=O)c2ccc3c(Cl)ccc(Cl)c3c2)ccnc1Oc1cccc(N2CCOCC2)c1` (stereo not drawn) [Compound 57], with not below 3%; and `CCc1c(C(C)NS(=O)(=O)c2ccc3c(Cl)cccc3c2)ccnc1Sc1ccc(C)cc1` (stereo not drawn) [Compound 58, 5-Chloronaphthalene-2-sulfonic acid [1-(3-ethyl-2-p-toluylsulfanyl-pyridin-4-yl)-ethyl]-amide], with not below 3%. Still for that read-out and setting: the same measure for `CCc1c(C(C)NS(=O)(=O)c2ccc3c(Cl)cccc3c2)ccnc1S(=O)(=O)c1ccc(C)cc1` (stereo not drawn) [Compound 59, 5-Chloronaphthalene-2-sulfonic acid {1-[3-ethyl-2-(toluene-4-sulfonyl)-pyridin-4-yl]-ethyl}-amide]: not below 3%; for `CCc1c(C(C)N(C)S(=O)(=O)c2ccc3c(Cl)cccc3c2)ccnc1Oc1cccc(N2CCOCC2)c1` (stereo not drawn) [Compound 60, 5-Chloronaphthalene-2-sulfonic acid {1-[3-ethyl-2-(3-morpholin-4-yl-phenoxy)-pyridin-4-yl]-ethyl}-methyl-amide]: not below 3%. The same measure, in the same setting: then `CCc1c(C(C)NS(=O)(=O)c2ccc3c(Cl)cccc3c2)ccnc1Sc1cccc(N2CCN(C)CC2)c1` (stereo not drawn) [Compound 62], with not below 3%.

Still in this test, the particulars now being: membrane binding test at various concentrations; [33P]-S1P 0.1 nM; read-out: IC50 value, Edg-1(S1P1) binding inhibition.
One may read the IC50 as the midpoint of a concentration-inhibition curve. In the case of `CCc1c(C(C)NS(=O)(=O)c2ccc(Cl)c(Cl)c2Cl)ccnc1Oc1cccc(N2CCOCC2)c1` (stereo not drawn) [Compound 48], the IC50 is 63 nM. For the compound `CCc1c(C(C)NS(=O)(=O)c2ccc3c(c2)N=S=N3)ccnc1Oc1cccc(N2CCOCC2)c1` (stereo not drawn) [Compound 55], the IC50 stood at 126 nM. Still for that read-out and setting: then `CCc1c(C(C)NS(=O)(=O)c2ccc3c(Cl)ccc(Cl)c3c2)ccnc1Oc1cccc(N2CCOCC2)c1` (stereo not drawn) [Compound 57], with not above 200 nM.
